Measured values: patent EP2272817A1, “PAI-1 INHIBITOR” (Institute of Medicinal Molecular Design, Inc., priority 2008, dated 2009)

The compounds below were run against recombinant human PAI-1 (Homo sapiens, UniProt P05121) (assay: Test Example 2: Human PAI-1 Inhibitory Activity (pH 7.4 HEPES buffer, 10 minutes incubation with two-chain tPA)). Settings: read-out: Inhibition Rate of PAI-1 Activity (%).
Assay type: biochemical
Set-up: purchased Molecular Innovations, Inc
Method: 0.1 M HEPES, 0.1 M NaCl. 1 mM EDTA. 0.1 % Polyethylene glycol 8,000 (Hampton Research Corporation),
2 mM Dimethyldecylphoshine oxide [Apo-10] (Fluka Corporation)

Sequence of recombinant human PAI-1 (P05121 24-402): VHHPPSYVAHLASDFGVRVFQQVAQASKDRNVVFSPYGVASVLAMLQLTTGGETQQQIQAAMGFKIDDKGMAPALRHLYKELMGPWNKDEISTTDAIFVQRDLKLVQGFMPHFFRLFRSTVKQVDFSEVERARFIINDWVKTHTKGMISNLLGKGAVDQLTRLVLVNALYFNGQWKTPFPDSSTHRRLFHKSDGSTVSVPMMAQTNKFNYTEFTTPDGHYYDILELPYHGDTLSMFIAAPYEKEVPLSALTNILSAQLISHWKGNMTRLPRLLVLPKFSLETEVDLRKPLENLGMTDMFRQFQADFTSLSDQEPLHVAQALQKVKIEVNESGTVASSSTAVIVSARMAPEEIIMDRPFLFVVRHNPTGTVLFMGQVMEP

Row | inhibition at 0.1 µM | inhibition at 0.3 µM | inhibition at 1 µM | inhibition at 3 µM | inhibition at 10 µM | inhibition at 25 µM | Structure (SMILES)
1 | 1% | 8% | 63% | > 99% |  |  | CC(C)Oc1ccc(-c2ccc(OCC(=O)O)c(Oc3ccc(C(C)(C)C)cc3)c2)cc1 [Compound 460]
2 | 11% | 33% | 90% | > 99% |  |  | CC(C)(C)c1ccc(-c2ccc(/C=C/C(=O)O)c(Oc3ccc(OC(F)(F)F)cc3)c2)cc1 [Compound 478]
3 | 26% | 31% | 42% | 86% |  |  | CC(C)(C)c1ccc(Oc2cc(-c3ccc(F)cc3)ccc2OCC(=O)O)cc1 [Compound 459]
4 | 6% | 11% | 28% | 98% |  |  | CC(C)(C)c1ccc(Oc2ccc(-c3cccc(OC(F)(F)F)c3)cc2OCC(=O)O)cc1 [Compound 329]
5 | 17% | 37% | > 99% | 92% |  |  | O=C(O)C(=O)N(CCCCc1ccccc1)c1cc(-c2ccc(OC(F)(F)F)cc2)ccc1OC1C2CC3CC(C2)CC1C3 (stereo not drawn) [Compound 634]
6 | 0% | 33% | > 99% | > 99% |  |  | CCCCc1ccc(-c2ccc(Oc3ccc(C(C)(C)C)cc3)c(OCC(=O)O)c2)cc1 [Compound 505]
7 |  |  | 0% | 20% | 36% | 46% | CC(C)(C)c1ccc(CN(C(=O)CCCC(=O)O)c2ccc(-c3ccc(OC(F)(F)F)cc3)cc2)cc1 [Compound 604]
8 | 14% | 54% | > 99% | > 99% |  |  | CC(C)c1ccc(-c2ccc(/C=C/C(=O)O)c(Oc3ccc(C(C)(C)C)cc3)c2)cc1 [Compound 518]
9 | 12% | 14% | 69% | > 99% |  |  | O=C(O)/C=C/c1ccc(-c2ccc(OC(F)(F)F)cc2)cc1OCCCSc1ccccc1 [Compound 489]
10 |  |  | 73% | 95% | 94% | 90% | CC(C)(C)c1ccc(COc2ccc(N3CCN(c4ccc(OC(F)(F)F)cc4)CC3)cc2/C=C/C(=O)O)cc1 [Compound 418]
11 | 11% | 15% | 78% | > 99% |  |  | CCCCOc1ccc(Oc2cc(-c3ccc(OC(F)(F)F)cc3)ccc2OCC(=O)O)cc1 [Compound 523]
12 | 11% | 17% | > 99% | > 99% |  |  | CCCCCOc1ccc(-c2ccc(Oc3ccc(C(C)(C)C)cc3)c(OCC(=O)O)c2)cc1 [Compound 454]
13 | 0% | 3% | 56% | 92% |  |  | O=C(O)CCc1cc(-c2ccc(OC(F)(F)F)cc2)ccc1OCCCCCOc1ccc(-c2ccc(OC(F)(F)F)cc2)cc1CCC(=O)O [Compound 544]
14 | 0% | 16% | 95% | > 99% |  |  | CC(C)(C)c1ccc(Sc2cc(-c3ccc(OC(F)(F)F)cc3)ccc2C(=O)C(=O)O)cc1 [Compound 548]
15 | 17% | 24% | 87% | 94% |  |  | CCCCC(Oc1cc(Oc2ccc(OC(F)(F)F)cc2)ccc1Oc1ccc(C(C)(C)C)cc1)C(=O)O (stereo not drawn) [Compound 312]
16 | 0% | 4% | 92% | > 99% |  |  | CC(C)(C)c1ccc(CCc2cc(-c3ccc(OC(F)(F)F)cc3)ccc2OCC(=O)O)cc1 [Compound 551]

Row | inhibition at 0.1 µM | inhibition at 0.3 µM | inhibition at 1 µM | inhibition at 3 µM | inhibition at 10 µM | inhibition at 25 µM | Structure (SMILES)
17 | 0% | 1% | 73% | 94% |  |  | O=C(O)/C=C/c1cc(-c2ccc(OC(F)(F)F)cc2)ccc1OCCCCCOc1ccc(-c2ccc(OC(F)(F)F)cc2)cc1/C=C/C(=O)O [Compound 543]
18 | 6% | 55% | 97% | 94% |  |  | CCCCCOc1ccc(-c2ccc(OC(F)(F)F)cc2)cc1N(CCCCc1cc(C)ccc1C)C(=O)C(=O)O [Compound 670]
19 |  |  | 0% | 14% | 57% | > 99% | CC(C)(C)c1ccc(CN(C(=O)C(=O)O)c2ccc(N3CCN(c4ccccc4)CC3)cc2)cc1 [Compound 627]
20 | 5% | 15% | 57% | > 99% |  |  | O=C(O)C(=O)N(CCCCc1ccccc1)c1cc(-c2ccc(OC(F)(F)F)cc2)ccc1Oc1ccccc1 [Compound 638]
21 | 4% | 17% | 97% | > 99% |  |  | CC(C)(C)c1ccc(Sc2cc(-c3ccc(OC(F)(F)F)cc3)ccc2C(=O)O)cc1 [Compound 547]
22 | 1% | 22% | 96% | > 99% |  |  | CC(C)c1ccc(Oc2cc(-c3ccc(OC(F)(F)F)cc3)ccc2/C=C/C(=O)O)cc1 [Compound 509]
23 | 12% | 0% | 12% | 83% |  |  | CC(Oc1cc(-c2ccc(OC(F)(F)F)cc2)ccc1CCC(=O)O)c1ccccc1 (stereo not drawn) [Compound 501]
24 | 12% | 9% | 44% | > 99% |  |  | CC(C)(C)c1cccc(Oc2ccc(-c3ccc(OC(F)(F)F)cc3)cc2OCC(=O)O)c1 [Compound 439]
25 | 6% | 26% | 95% | > 99% |  |  | CCCCCOc1ccc(-c2ccc(OC(F)(F)F)cc2)cc1CN(C(=O)C(=O)O)c1ccc(C(C)(C)C)cc1 [Compound 645]
26 | 2% | 5% | 32% | 98% |  |  | CCCCCOc1ccc(-c2ccc(OC(F)(F)F)cc2)cc1N(CC(=O)O)C(=O)CCCc1ccccc1 [Compound 682]
27 | 5% | 7% | 11% | 49% |  |  | CC(C)(C)c1ccc(Oc2cc(-c3ccc(C#N)cc3)ccc2OCC(=O)O)cc1 [Compound 471]
28 | 7% | 9% | 93% | 95% |  |  | CCCCCCOc1ccc(-c2ccc(OC(F)(F)F)cc2)cc1OC(CCCCCC)C(=O)O (stereo not drawn) [Compound 429]
29 | 0% | 10% | 36% | 91% |  |  | O=C(O)CCc1ccc(-c2ccc(OC(F)(F)F)cc2)cc1OCCCOCc1ccccc1 [Compound 488]
30 | 12% | 59% | > 99% | > 99% |  |  | CC(C)(C)c1ccc(Oc2cc(Nc3ccc(OC(F)(F)F)cc3)ccc2CCC(=O)O)cc1 [Compound 532]
31 | 6% | 9% | 84% | > 99% |  |  | CC(C)(C)[C@H]1CC[C@H](CN(C(=O)C(=O)O)c2ccc(-c3ccc(OC(F)(F)F)cc3)cc2)CC1 [Compound 679]
32 | 7% | 12% | 52% | > 99% |  |  | CC(CCOc1ccc(-c2ccc(OC(F)(F)F)cc2)cc1OCc1ccc(C(C)(C)C)cc1)C(=O)O (stereo not drawn) [Compound 482]

Row | Structure (SMILES) | inhibition at 0.1 µM | inhibition at 0.3 µM | inhibition at 1 µM | inhibition at 3 µM | inhibition at 10 µM | inhibition at 25 µM
33 | CCCCC(Oc1cc(-c2ccc(OC(F)(F)F)cc2)ccc1OCCCCc1ccc(F)cc1)C(=O)O (stereo not drawn) [Compound 324] | 0% | 1% | 66% | 97% |  | 
34 | CCCCCOc1ccc(-c2ccc(Cl)cc2)cc1N(CCCCc1ccccc1)C(=O)C(=O)O [Compound 361] | 9% | 5% | 68% | 97% |  | 
35 | CCCCCOc1ccc(-c2ccc(C(F)(F)F)cc2)cc1N(CCCCc1ccccc1)C(=O)C(=O)O [Compound 390] | 4% | 12% | 79% | 87% |  | 
36 | CCCCCOc1cc(-c2ccc(OC(F)(F)F)cc2)cc(N(CCCCc2ccccc2)C(=O)C(=O)O)c1OCCCCC [Compound 372] | 2% | 27% | 97% | 93% |  | 
37 | CCCCCOc1ccc(-c2ccc(OC(F)(F)F)cc2)cc1N(CCCSc1ccccc1)C(=O)C(=O)O [Compound 357] | 0% | 2% | 69% | > 99% |  | 
38 | O=C(O)C(=O)N(CCCCc1ccccc1)c1cc(-c2ccc(OC(F)(F)F)cc2)ccc1OCCC(F)(F)F [Compound 383] | 2% | 6% | 32% | 98% |  | 
39 | CCCCCOc1cc(-c2ccc(C(F)(F)F)cc2)ccc1N(CCCCc1ccccc1)C(=O)C(=O)O [Compound 392] | 7% | 14% | 77% | > 99% |  | 
40 | CCCCC(Oc1cc(Oc2ccc(OC(F)(F)F)cc2)ccc1OCc1ccc(C(C)(C)C)cc1)C(=O)O (stereo not drawn) [Compound 308] | 0% | 22% | 63% | 95% |  | 
41 | CCCCCOc1ccc(-c2ccc(OC(F)(F)F)cc2)cc1N(CCCOc1ccccc1)C(=O)C(=O)O [Compound 356] | 7% | 13% | 53% | > 99% |  | 
42 | CCCCC(Oc1ccc(-c2ccc(OC(F)(F)F)cc2)cc1OCc1ccc(C(C)(C)C)cc1)C(=O)O (stereo not drawn) [Compound 310] | 11% | 19% | 72% | 96% |  | 
